Test results taken from ChEMBL document CHEMBL5346922, “Discovery of phenylcarbamoyl xanthone derivatives as potent neuroprotective agents for treating ischemic stroke” (Eur J Med Chem, 2023).
pEC50, pIC50: −log10 of the molar value. Active and inactive are the calls of the source. The calls are words filed in the database; no cut-off is given here.

Assays:
PC-12 [1] = test: Neuroprotective activity against H2O2-induced oxidative damage in rat PC12 cells at 20 uM pretreated with H2O2 for 24 hrs followed by compound addition and measured after 24 hrs; assay type: functional
PC-12 [2] = test: Neuroprotective activity against H2O2-induced oxidative damage in rat PC12 cells assessed as increase in cell survival at 20 uM pretreated with H2O2 for 24 hrs followed by compound addition and measured after 24 hrs; assay type: functional; details: read-out: Survival
PC-12 [3] = test: Neuroprotective activity in rat PC12 cells assessed as protection against glutamate induced excitotoxicity at 20 uM pretreated with glutamate for 24 hrs followed by compound addition and measured after 24 hrs; assay type: functional
PC-12 [4] = test: Neuroprotective activity against glutamate induced excitotoxicity in rat PC12 cells assessed as cell survival at 20 uM pretreated with glutamate for 24 hrs followed by compound addition and measured after 24 hrs; assay type: functional; details: read-out: Survival
PC-12 [5] = test: Neuroprotective activity against glutamate induced excitotoxicity in rat PC12 cells assessed as cell survival at 25 uM pretreated with glutamate for 24 hrs followed by compound addition and measured after 24 hrs; assay type: functional; details: read-out: Survival
PC-12 [6] = test: Neuroprotective activity against H2O2-induced oxidative damage in rat PC12 cells pretreated with H2O2 for 24 hrs followed by compound addition and measured after 24 hrs; assay type: functional, cell-based
PC-12 [7] = test: Neuroprotective activity against glutamate induced excitotoxicity in rat PC12 cells pretreated with glutamate for 24 hrs followed by compound addition and measured after 24 hrs; assay type: functional, cell-based
PC-12 [8] = test: Cytotoxicity against rat PC12 cells assessed as reduction in cell viability incubated for 24 hrs by MTT assay; assay type: functional, cell-based
PC-12 [9] = test: Cytotoxicity against rat PC12 cells assessed as reduction in cell viability at 80 uM incubated for 24 hrs by MTT assay; assay type: functional
Rattus norvegicus [10] = test: Neuroprotective activity against middle cerebral artery occlusion induced ischemia stroke Sprague-Dawley rat model assessed as decrease in brain water content at 60 mg/kg, ip measured after 24 hrs (reference value: 83.17 +/- 2.40%); assay type: functional; parameters: scale not given: the % may be the effect or the level left
Rattus norvegicus [11] = test: Neuroprotective activity against middle cerebral artery occlusion induced ischemia stroke Sprague-Dawley rat model assessed as decrease in cerebral infarction area at 60 mg/kg, ip measured after 24 hrs by TTC staining based microscopic assay (reference value: 15.91 +/- 9.06 %); assay type: functional; parameters: scale not given: the % may be the effect or the level left
Rattus norvegicus [12] = test: Neuroprotective activity against middle cerebral artery occlusion induced ischemia stroke Sprague-Dawley rat model assessed as Zea-longa score at 20 mg/kg, po measured after 24 hrs (reference value: 2.17+/- 0.37); assay type: functional
PC-12 [13] = test: Neuroprotective activity against glutamate induced excitotoxicity in rat PC12 cells assessed as cell survival at 160 uM pretreated with glutamate for 24 hrs followed by compound addition and measured after 24 hrs; assay type: functional; details: read-out: Survival
PC-12 [14] = test: Neuroprotective activity in rat PC12 cells assessed as protection against glutamate induced excitotoxicity at 160 uM pretreated with glutamate for 24 hrs followed by compound addition and measured after 24 hrs; assay type: functional

Row | SMILES | Activity (PC-12 [1]) [%] | viability at 20 µM (PC-12 [2]) [%] | Activity (PC-12 [3]) [%] | viability at 20 µM (PC-12 [4]) [%] | further results
1 | COc1c(OC(=O)N(CC2CC2)c2ccccc2C)cc2oc3cc4c(c(O)c3c(=O)c2c1CC=C(C)C)C=CC(C)(C)O4 | 11.7 | 60.6 | 0 | 30.5 | 
2 | COc1c(OC(=O)N(C)c2ccccc2)cc2oc3cc4c(c(OCc5ccc(F)cc5)c3c(=O)c2c1CC=C(C)C)C=CC(C)(C)O4 | 22.59 | 65.5 | 0.01 | 31 | 
3 | COc1c(OC(=O)N(C)c2ccccc2)cc2oc3cc4c(c(OC)c3c(=O)c2c1CC=C(C)C)C=CC(C)(C)O4 | 34.72 | 70.9 | 46.32 | 62.7 | 
4 | CCc1ccc(N(C)C(=O)Oc2cc3oc4cc5c(c(O)c4c(=O)c3c(CC=C(C)C)c2OC)C=CC(C)(C)O5)cc1 | 22.79 | 65.5 | 29.26 | 50.8 | 
5 | COc1c(OC(=O)N(C)c2ccc(C(C)(C)C)cc2)cc2oc3cc4c(c(O)c3c(=O)c2c1CC=C(C)C)C=CC(C)(C)O4 | 18.35 | 63.6 | 12.14 | 38.9 | 
6 | COc1c(OC(=O)N(C)c2cccc(C)c2)cc2oc3cc4c(c(O)c3c(=O)c2c1CC=C(C)C)C=CC(C)(C)O4 | 25.7 | 66.8 | 39.04 | 57.6 | 
7 | N[C@@H](CCC(=O)O)C(=O)O [GLUTAMIC ACID] |  |  |  |  | viability at 25 µM (PC-12 [5]): 30.5%
8 | CCOc1cccc(N(C)C(=O)Oc2cc3oc4cc5c(c(O)c4c(=O)c3c(CC=C(C)C)c2OC)C=CC(C)(C)O5)c1 | 8.38 | 59.1 | 18.96 | 43.7 | 
9 | COc1c(OC(=O)N(CC2CC2)c2cccc(Cl)c2)cc2oc3cc4c(c(O)c3c(=O)c2c1CC=C(C)C)C=CC(C)(C)O4 | 45.94 | 75.9 | 46.68 | 62.9 | pEC50 (PC-12 [6]): 4.58
10 | COc1c(OC(=O)N(C)c2ccccc2F)cc2oc3cc4c(c(O)c3c(=O)c2c1CC=C(C)C)C=CC(C)(C)O4 | 34.69 | 70.9 | 43.78 | 60.9 | 
11 | CCN(C(=O)Oc1cc2oc3cc4c(c(O)c3c(=O)c2c(CC=C(C)C)c1OC)C=CC(C)(C)O4)c1ccccc1 | 21.74 | 65.1 | 38.13 | 57 | 
12 | COc1c(OC(=O)N(CC2CC2)c2ccc(C)cc2)cc2oc3cc4c(c(O)c3c(=O)c2c1CC=C(C)C)C=CC(C)(C)O4 | 30.57 | 69 | 48.26 | 64 | 
13 | CC1=NN(c2ccccc2)C(=O)C1 [EDARAVONE] | 56.36 | 80.5 |  |  | 
14 | COc1c(OC(=O)N(CC2CC2)c2cccc(Br)c2)cc2oc3cc4c(c(O)c3c(=O)c2c1CC=C(C)C)C=CC(C)(C)O4 | 17.48 | 63.2 | 23.09 | 46.5 | 
15 | COc1c(OC(=O)N(C)c2cccc(C)c2)cc2oc3cc4c(c(OC)c3c(=O)c2c1CC=C(C)C)C=CC(C)(C)O4 | 15.51 | 62.3 | 38.81 | 57.5 | 
16 | COc1c(OC(=O)N(C)c2cccc(Cl)c2)cc2oc3cc4c(c(OC)c3c(=O)c2c1CC=C(C)C)C=CC(C)(C)O4 | 28.17 | 68 | 7.91 | 36 | 
17 | COc1ccc(N(C)C(=O)Oc2cc3oc4cc5c(c(O)c4c(=O)c3c(CC=C(C)C)c2OC)C=CC(C)(C)O5)cc1 | 16 | 62.5 | 26.88 | 49.2 | 
18 | COc1c(OC(=O)N(C)c2cccc(Br)c2)cc2oc3cc4c(c(O)c3c(=O)c2c1CC=C(C)C)C=CC(C)(C)O4 | 5.11 | 57.7 | 3.74 | 33.1 | 
19 | COc1c(OC(=O)N(C)c2ccc(C)cc2)cc2oc3cc4c(c(O)c3c(=O)c2c1CC=C(C)C)C=CC(C)(C)O4 | 17.03 | 63 | 29.08 | 50.7 | 

Row | SMILES | Activity (PC-12 [1]) [%] | viability at 20 µM (PC-12 [2]) [%] | Activity (PC-12 [3]) [%] | viability at 20 µM (PC-12 [4]) [%] | further results
20 | COc1c(OC(=O)N(C)c2ccccc2)cc2oc3cc4c(c(OCc5ccc(C(F)(F)F)cc5)c3c(=O)c2c1CC=C(C)C)C=CC(C)(C)O4 | 12.35 | 60.9 | 6.46 | 35 | 
21 | COc1c(OC(=O)N(C)c2ccccc2C)cc2oc3cc4c(c(O)c3c(=O)c2c1CC=C(C)C)C=CC(C)(C)O4 | 25.55 | 66.8 | 36.26 | 55.7 | 
22 | COc1c(OC(=O)N(CC2CC2)c2ccccc2)cc2oc3cc4c(c(O)c3c(=O)c2c1CC=C(C)C)C=CC(C)(C)O4 | 42.11 | 74.2 | 53.91 | 68 | pEC50 (PC-12 [7]): 4.68; pEC50 (PC-12 [6]): 4.53
23 | CCc1cccc(N(C)C(=O)Oc2cc3oc4cc5c(c(O)c4c(=O)c3c(CC=C(C)C)c2OC)C=CC(C)(C)O5)c1 | 11.9 | 60.7 | 37.14 | 56.3 | 
24 | COc1c(OC(=O)N(C)c2ccccc2)cc2oc3c(CN4CCN(C)CC4)c4c(c(O)c3c(=O)c2c1CC=C(C)C)C=CC(C)(C)O4 |  |  |  |  | Activity (PC-12 [8]): Active
25 | COc1c(OC(=O)N(C)c2ccccc2)cc2oc3c(CN(C)C)c4c(c(O)c3c(=O)c2c1CC=C(C)C)C=CC(C)(C)O4 |  |  |  |  | Activity (PC-12 [9]): 90%; pIC50 (PC-12 [8]; PC-12, 24 h): 5.30
26 | COc1c(OC(=O)N(C)c2cccc(Cl)c2)cc2oc3cc4c(c(O)c3c(=O)c2c1CC=C(C)C)C=CC(C)(C)O4 | 6.23 | 58.2 | 1.57 | 31.6 | 
27 | COc1c(OC(=O)N(CC2CC2)c2cccc(F)c2)cc2oc3cc4c(c(O)c3c(=O)c2c1CC=C(C)C)C=CC(C)(C)O4 | 42.67 | 74.4 | 55.65 | 69.2 | pEC50 (PC-12 [7]): 4.76; pEC50 (PC-12 [6]): 4.61
28 | COc1c(OC(=O)N(C)c2ccc(C)cc2)cc2oc3cc4c(c(OC)c3c(=O)c2c1CC=C(C)C)C=CC(C)(C)O4 | 33.3 | 70.2 | 26.81 | 49.1 | 
29 | COc1c(OC(=O)N(C)c2cccc(F)c2)cc2oc3cc4c(c(O)c3c(=O)c2c1CC=C(C)C)C=CC(C)(C)O4 | 12.46 | 60.9 | 53.62 | 67.8 | pEC50 (PC-12 [7]): 4.71
30 | COc1c(OC(=O)N(C)c2ccc(F)cc2)cc2oc3cc4c(c(O)c3c(=O)c2c1CC=C(C)C)C=CC(C)(C)O4 | 43.32 | 74.7 | 52.82 | 67.2 | pEC50 (PC-12 [7]): 4.67; pEC50 (PC-12 [6]): 4.54
31 | CCc1ccccc1N(C)C(=O)Oc1cc2oc3cc4c(c(O)c3c(=O)c2c(CC=C(C)C)c1OC)C=CC(C)(C)O4 | 17.35 | 63.1 | 35.36 | 55.1 | 
32 | CCCCC1OC(=O)c2ccccc21 (stereo not drawn) [RAC-3-N-BUTYLPHTHALIDE] |  |  |  |  | Activity (Rattus norvegicus [10]): 82.2%; Activity (Rattus norvegicus [11]): 1.64%; Activity (Rattus norvegicus [12]): 1.33
33 | COc1ccccc1N(C)C(=O)Oc1cc2oc3cc4c(c(O)c3c(=O)c2c(CC=C(C)C)c1OC)C=CC(C)(C)O4 | 13.94 | 61.6 | 25.79 | 48.4 | 
34 | COc1c(OC(=O)N(C)c2ccccc2C)cc2oc3cc4c(c(OC)c3c(=O)c2c1CC=C(C)C)C=CC(C)(C)O4 | 31.11 | 69.3 | 31.44 | 52.3 | 
35 | CC12CC3CC(C)(C1)CC(N)(C3)C2 [MEMANTINE] |  |  |  |  | viability at 160 µM (PC-12 [13]): 63%; Activity (PC-12 [14]): 46.85%
36 | COc1cccc(N(C)C(=O)Oc2cc3oc4cc5c(c(O)c4c(=O)c3c(CC=C(C)C)c2OC)C=CC(C)(C)O5)c1 | 9.57 | 59.6 | 31.84 | 52.6 | 
37 | COc1c(OC(=O)N(CC2CC2)c2cccc(C)c2)cc2oc3cc4c(c(O)c3c(=O)c2c1CC=C(C)C)C=CC(C)(C)O4 | 39.49 | 73 | 35.08 | 54.9 | 
